Data reported in PMC7321408, “One-Pot Multicomponent Synthesis and Bioevaluation of Tetrahydroquinoline Derivatives as Potential Antioxidants, α-Amylase Enzyme Inhibitors, Anti-Cancerous and Anti-Inflammatory Agents” (Molecules, 2020).
Converted amounts (≈) assume the structure as drawn. Read-outs that look alike come from different tables or passages of the source.

Key:
[1] = tested on: NO generated by LPS-induced macrophages; experiment: Nitric oxide assay (Griess) in LPS-induced macrophages; type: cell-based, murine; conditions: Mus musculus, Macrophage, 18 h, LPS 1 µg/mL, read-out: % NO Production (Mean ± SEM)
Procedure, shortened: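 Murine macrophages (1 × 10^6/well) pre-treated 2 h with compound at 100, 50, 10 or 1 µM, then LPS 1 µg/mL for 18 h. Nitrite in medium measured with Griess reagent at 540 nm against a NaNO2 standard curve; piroxicam as positive control, t-test for significance.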

Hep-2C cells = experiment: MTT assay against Hep-2C cells; type: cell-based, Human; conditions: Homo sapiens, Hep2C, read-out: IC50 (Mean ± SEM) Hep-2C Cells
Procedure, shortened: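 Human cervix carcinoma Hep-2C cells in DMEM with 10% FCS, seeded at 1 × 10^6 and exposed to test compounds for 24, 48 and 72 h. MTT (1 mg per mL) added for 4 h, formazan dissolved in DMSO, absorbance at 570 nm. Viability % versus untreated cells after blank subtraction.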

[2] = Total reducing power (TRP) assay
Protocol: A TRP assay was carried out to evaluate the reducing potential of synthetic compounds. The method implicates reductones. These reductones are species with antioxidant potential that is believed to be due to their proton-donating capacity. […] The maximum value of reducing power was 104.7 ± 1.9 µg/AAE for SF5, followed by 103.18 ± 2.4 µg/AAE for SF7 and 84.57 ± 1.9 µg/AAE for SF12 (Figure 3 and Figure 4 (standard curve)).
The assay is based on the reduction of Fe^+3 to Fe^+2. The method described by Khan et al. was used with slight modifications. One hundred microliters of test samples (4 mg/mL DMSO) were taken in an Eppendrof tube and 200 μL of phosphate buffer (0.2 mol/L, pH 6.6) and 250 µL of 1% potassium ferricyanide (K3Fe CN)6) were added. This was allowed to incubate at 50 °C for 20 min. Later on, 200 μL of 10% trichloroacetic acid (TCA) was added to the mixture. The mixture was centrifuged at 3000 rpm at room temperature for 10 min. After centrifugation, 150 µL of supernatant were transferred to microplate with FeCl3 (50 μL, 0.1%) and the absorbance was taken at 630 nm. The results were calculated as µg AAE/mg.

[3] = DPPH free radical scavenging assay; conditions: mean ± SEM, n = 3; for IC50 (DPPH radical scavenging): concentration to scavenge 50% of the DPPH radicals
Procedure, shortened: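 Compounds at 200, 66.6, 22.2 and 7.4 µg/mL were mixed with DPPH radical, with DMSO as the negative control. Absorbance was read at 630 nm, and % scavenging was calculated as (1 − Abs/Abc) × 100 against the control.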

SMILES | activity at 1 µM [1] | activity at 10 µM [1] | activity at 50 µM [1] | activity at 100 µM [1] | IC50 (Hep-2C cells; 24 h) | IC50 (Hep-2C cells; 48 h) | IC50 (Hep-2C cells; 72 h) | Total reducing power (TRP) [2] | % DPPH Scavenging Activity ([3]; 7.4 µg/mL) | % DPPH Scavenging Activity ([3]; 22.22 µg/mL) | % DPPH Scavenging Activity ([3]; 66.66 µg/mL) | % DPPH Scavenging Activity ([3]; 200 µg/mL) | IC50 (DPPH radical scavenging) [3]
c1ccc2c(c1)CCCN2CN1CCCCC1 [SF1, 1-(Piperidine-1-ylmethyl) 1,2,3,4-tetrahahydroquinoline] | 27.8 ± 0.45% | 26 ± 0.43% | 23.7 ± 0.41% | 17.3 ± 0.35% | 28 ± 1.07 µM | 21.8 ± 1.1 µM | 14.8 ± 1.07 µM | 33.22 ± 1.5 µg/AAE | 11.91 ± 0.32% | 27.76 ± 0.11% | 50.08 ± 0.18% | 62.45 ± 0.12% | 44.22 ± 0.25 µg/mL (≈ 192 µM)
CN1CCN(CN2CCCc3ccccc32)CC1 [SF5] | 51.43 ± 0.48% | 43 ± 0.45% | 28.6 ± 0.44% | 21.9 ± 0.38% | 21.3 ± 1.09 µM | 18 ± 1.05 µM | 16.8 ± 1.07 µM | 104.7 ± 1.9 µg/AAE | 7.76 ± 0.23% | 17.39 ± 0.16% | 28.77 ± 0.14% | 45.24 ± 0.28% | 56.63 ± 0.32 µg/mL (≈ 231 µM)
c1ccc(N(CN2CCCc3ccccc32)c2ccccc2)cc1 [SF7, N-((3,4-dihydroquinolin-1(2H)-yl)methyl)-N-phenylaniline] | 69.71 ± 0.65% | 63.12 ± 0.61% | 21.4 ± 0.48% | 17.5 ± 0.45% | 26.7 ± 1.1 µM | 21.6 ± 1.05 µM | 16.8 ± 1.03 µM | 103.18 ± 2.4 µg/AAE | 9.28 ± 0.13% | 26.76 ± 0.17% | 50.48 ± 0.054% | 64.48 ± 0.18% | 44.4 ± 0.29 µg/mL (≈ 141 µM)
